Assay: mn = molality of the nth substance listed, in mol/kg
Details: for surface tension liquid-gas: Pendant drop shape; for electrical conductivity: 100 kPa, Liquid, Mettler Toledo inLab 710

CCCCCCCCCCCC[N+](C)(C)CCCCCC[N+](C)(C)CCCCCCCCCCCC.[Br-].[Br-] + O
Details	electrical conductivity [S/m]	surface tension liquid-gas [mN/m]
298.15 K, m1 = 0.0001	–	61.45
298.15 K, m1 = 0.0002	–	53.1
298.15 K, m1 = 0.0004	–	47.33
298.15 K, m1 = 0.00056	0.0115	–
298.15 K, m1 = 0.00059	0.0123	–
298.15 K, m1 = 0.0006	–	42.35
298.15 K, m1 = 0.00063	0.0132	–
298.15 K, m1 = 0.00067	0.0138	–
298.15 K, m1 = 0.0007	–	40.01
298.15 K, m1 = 0.00071	0.0147	–
298.15 K, m1 = 0.00077	0.0159	–
298.15 K, m1 = 0.0008	–	38.21
298.15 K, m1 = 0.00083	0.017	–
298.15 K, m1 = 0.00085	–	38.13
298.15 K, m1 = 0.00087	0.0176	–
298.15 K, m1 = 0.0009	–	37.83
298.15 K, m1 = 0.00091	0.0182	–
298.15 K, m1 = 0.00095	0.0188	–
298.15 K, m1 = 0.001	0.0194	37.53
298.15 K, m1 = 0.00105	0.02	–
298.15 K, m1 = 0.0011	–	37.34
298.15 K, m1 = 0.00111	0.0206	–
298.15 K, m1 = 0.00118	0.0212	–
298.15 K, m1 = 0.0012	–	37.28
298.15 K, m1 = 0.00125	0.0219	–
298.15 K, m1 = 0.00133	0.0225	–
298.15 K, m1 = 0.00143	0.0231	–
298.15 K, m1 = 0.0015	–	37.38
298.15 K, m1 = 0.00154	0.024	–
298.15 K, m1 = 0.00167	0.0249	–
298.15 K, m1 = 0.00182	0.0259	–
298.15 K, m1 = 0.002	0.0269	37.23
303.15 K, m1 = 0.00057	0.0136	–
303.15 K, m1 = 0.00061	0.0143	–
303.15 K, m1 = 0.00065	0.0151	–
303.15 K, m1 = 0.00068	0.0158	–
303.15 K, m1 = 0.00071	0.0166	–
303.15 K, m1 = 0.00075	0.0173	–
303.15 K, m1 = 0.0008	0.0183	–
303.15 K, m1 = 0.00083	0.0189	–
303.15 K, m1 = 0.00087	0.0196	–
303.15 K, m1 = 0.00091	0.0202	–
303.15 K, m1 = 0.00095	0.0209	–
303.15 K, m1 = 0.001	0.0216	–
303.15 K, m1 = 0.00105	0.0223	–
303.15 K, m1 = 0.00111	0.023	–
303.15 K, m1 = 0.00118	0.0237	–
303.15 K, m1 = 0.00125	0.0244	–
303.15 K, m1 = 0.00133	0.0252	–
303.15 K, m1 = 0.00143	0.0261	–
303.15 K, m1 = 0.00154	0.027	–
303.15 K, m1 = 0.0016	0.0276	–
303.15 K, m1 = 0.00167	0.0281	–
303.15 K, m1 = 0.00174	0.0287	–
303.15 K, m1 = 0.00182	0.0293	–
303.15 K, m1 = 0.0019	0.03	–
303.15 K, m1 = 0.002	0.0307	–
308.15 K, m1 = 0.00065	0.0167	–
308.15 K, m1 = 0.00068	0.0175	–
308.15 K, m1 = 0.00071	0.0182	–
308.15 K, m1 = 0.00075	0.0193	–
308.15 K, m1 = 0.0008	0.0203	–
308.15 K, m1 = 0.00083	0.0209	–
308.15 K, m1 = 0.00087	0.0217	–
308.15 K, m1 = 0.00091	0.0225	–
308.15 K, m1 = 0.00095	0.0232	–
308.15 K, m1 = 0.001	0.024	–
308.15 K, m1 = 0.00105	0.0248	–
308.15 K, m1 = 0.00111	0.0257	–
308.15 K, m1 = 0.00118	0.0266	–
308.15 K, m1 = 0.00125	0.0275	–
308.15 K, m1 = 0.00133	0.0284	–
308.15 K, m1 = 0.00143	0.0294	–
308.15 K, m1 = 0.00154	0.0306	–
308.15 K, m1 = 0.0016	0.0312	–
308.15 K, m1 = 0.00167	0.0318	–
308.15 K, m1 = 0.00174	0.0325	–
308.15 K, m1 = 0.00182	0.0332	–
308.15 K, m1 = 0.0019	0.0339	–
308.15 K, m1 = 0.002	0.0346	–
313.15 K, m1 = 0.00057	0.0163	–
313.15 K, m1 = 0.00061	0.0171	–
313.15 K, m1 = 0.00065	0.0182	–
313.15 K, m1 = 0.00068	0.0191	–
313.15 K, m1 = 0.00071	0.02	–
313.15 K, m1 = 0.00075	0.021	–
313.15 K, m1 = 0.0008	0.0222	–
313.15 K, m1 = 0.00083	0.023	–
313.15 K, m1 = 0.00087	0.024	–
313.15 K, m1 = 0.00091	0.0248	–
313.15 K, m1 = 0.00095	0.0259	–
313.15 K, m1 = 0.001	0.0269	–
313.15 K, m1 = 0.00105	0.0278	–
313.15 K, m1 = 0.00111	0.0288	–
313.15 K, m1 = 0.00118	0.0299	–
313.15 K, m1 = 0.00125	0.0308	–
313.15 K, m1 = 0.00133	0.0321	–
313.15 K, m1 = 0.00143	0.0333	–
313.15 K, m1 = 0.00154	0.0347	–
313.15 K, m1 = 0.0016	0.0353	–
313.15 K, m1 = 0.00167	0.036	–
313.15 K, m1 = 0.00174	0.0368	–
313.15 K, m1 = 0.00182	0.0376	–
313.15 K, m1 = 0.0019	0.0384	–
313.15 K, m1 = 0.002	0.0392	–
318.15 K, m1 = 0.00057	0.0184	–
318.15 K, m1 = 0.00061	0.0193	–
318.15 K, m1 = 0.00065	0.0206	–
318.15 K, m1 = 0.00069	0.0222	–
318.15 K, m1 = 0.00074	0.0237	–
318.15 K, m1 = 0.0008	0.0254	–
318.15 K, m1 = 0.00085	0.0265	–
318.15 K, m1 = 0.00091	0.0281	–
318.15 K, m1 = 0.00095	0.0292	–
318.15 K, m1 = 0.001	0.0302	–
318.15 K, m1 = 0.00104	0.031	–
318.15 K, m1 = 0.00109	0.0318	–
318.15 K, m1 = 0.00114	0.0328	–
318.15 K, m1 = 0.00119	0.0337	–
318.15 K, m1 = 0.00125	0.0347	–
318.15 K, m1 = 0.00132	0.0358	–
318.15 K, m1 = 0.00139	0.0368	–
318.15 K, m1 = 0.00147	0.038	–
318.15 K, m1 = 0.00156	0.0393	–
318.15 K, m1 = 0.00167	0.0406	–
318.15 K, m1 = 0.00172	0.0413	–
318.15 K, m1 = 0.00179	0.042	–
318.15 K, m1 = 0.00185	0.0428	–
318.15 K, m1 = 0.00192	0.0437	–
318.15 K, m1 = 0.002	0.0446	–
323.15 K, m1 = 0.00065	0.022	–
323.15 K, m1 = 0.00069	0.0235	–
323.15 K, m1 = 0.00074	0.025	–
323.15 K, m1 = 0.0008	0.0271	–
323.15 K, m1 = 0.00085	0.0288	–
323.15 K, m1 = 0.00091	0.0305	–
323.15 K, m1 = 0.00095	0.0317	–
323.15 K, m1 = 0.001	0.0331	–
323.15 K, m1 = 0.00104	0.0343	–
323.15 K, m1 = 0.00109	0.0355	–
323.15 K, m1 = 0.00114	0.0367	–
323.15 K, m1 = 0.00119	0.038	–
323.15 K, m1 = 0.00125	0.0393	–
323.15 K, m1 = 0.00132	0.0406	–
323.15 K, m1 = 0.00139	0.0418	–
323.15 K, m1 = 0.00147	0.0433	–
323.15 K, m1 = 0.00156	0.0443	–
323.15 K, m1 = 0.00167	0.0455	–
323.15 K, m1 = 0.00172	0.0464	–
323.15 K, m1 = 0.00179	0.0473	–
323.15 K, m1 = 0.00185	0.0482	–
323.15 K, m1 = 0.00192	0.0491	–
323.15 K, m1 = 0.002	0.0501	–

O [water] + CCCCCCCCCCCCCC[N+](C)(C)CCC[N+](C)(C)CCCCCCCCCCCCCC.[Br-].[Br-]
Details	surface tension liquid-gas [mN/m]
298.15 K, m2 = 0	71.98
